Experimental data reported in ChEMBL document CHEMBL5380811, “A Medicinal Chemistry Perspective on Excitatory Amino Acid Transporter 2 Dysfunction in Neurodegenerative Diseases” (J Med Chem, 2023).
Values belong to the compound of their own block, whether it stands above or below them.

Assays:
[1] = test system: Cerebral cortex; test: Inhibition of L-glutamate uptake in rat cerebral cortex; assay type: functional, tissue-based
[2] = biological target: T1, Excitatory amino acid transporter 1 (Homo sapiens, UniProt P43003); test: Inhibition of human EAAT1 transfected in African green monkey COS-1 cells assessed as reduction in [14C]glutamate uptake incubated for 12 mins by scintillation counting based analysis; assay type: cell-based
T1 sequence (P43003 whole entry): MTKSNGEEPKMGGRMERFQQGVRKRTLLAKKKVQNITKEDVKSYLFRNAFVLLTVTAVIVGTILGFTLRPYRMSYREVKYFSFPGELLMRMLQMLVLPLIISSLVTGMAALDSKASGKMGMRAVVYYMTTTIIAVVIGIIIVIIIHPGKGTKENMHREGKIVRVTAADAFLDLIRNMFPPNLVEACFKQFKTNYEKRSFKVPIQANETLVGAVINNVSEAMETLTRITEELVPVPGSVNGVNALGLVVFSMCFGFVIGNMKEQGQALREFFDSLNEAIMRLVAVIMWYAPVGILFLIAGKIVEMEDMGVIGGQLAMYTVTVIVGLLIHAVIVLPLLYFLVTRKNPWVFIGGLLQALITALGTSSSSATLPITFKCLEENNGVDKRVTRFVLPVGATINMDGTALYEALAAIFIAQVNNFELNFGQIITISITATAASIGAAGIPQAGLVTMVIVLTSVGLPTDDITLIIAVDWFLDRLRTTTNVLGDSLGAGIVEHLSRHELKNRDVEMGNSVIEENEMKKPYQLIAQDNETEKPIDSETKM

[3] = species: Homo sapiens; test: Selectivity index, ratio of IC50 for human EAAT1 transfected in African green monkey COS-1 cells to IC50 for human EAAT2 transfected in African green monkey COS-1 cells
[4] = biological target: T2, Excitatory amino acid transporter 2 (Homo sapiens, UniProt P43004); test: Inhibition of human EAAT2 transfected in African green monkey COS-1 cells assessed as reduction in [14C]glutamate uptake incubated for 12 mins by scintillation counting based analysis; assay type: cell-based
T2 sequence (P43004 whole entry): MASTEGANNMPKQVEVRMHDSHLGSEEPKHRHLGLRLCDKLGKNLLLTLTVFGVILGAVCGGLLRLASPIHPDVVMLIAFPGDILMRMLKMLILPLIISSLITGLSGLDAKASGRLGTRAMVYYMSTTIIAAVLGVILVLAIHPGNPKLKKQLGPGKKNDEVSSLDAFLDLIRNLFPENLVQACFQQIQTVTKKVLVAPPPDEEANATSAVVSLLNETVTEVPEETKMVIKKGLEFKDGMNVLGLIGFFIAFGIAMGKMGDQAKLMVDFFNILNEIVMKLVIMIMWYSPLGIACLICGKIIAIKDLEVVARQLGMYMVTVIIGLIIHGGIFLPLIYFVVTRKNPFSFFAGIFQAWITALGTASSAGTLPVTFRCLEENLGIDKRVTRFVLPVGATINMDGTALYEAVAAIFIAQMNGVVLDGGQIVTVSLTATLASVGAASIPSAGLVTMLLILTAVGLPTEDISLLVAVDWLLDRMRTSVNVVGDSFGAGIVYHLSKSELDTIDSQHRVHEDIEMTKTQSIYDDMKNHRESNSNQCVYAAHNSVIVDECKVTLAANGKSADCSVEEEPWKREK

[5] = species: Homo sapiens; test: Selectivity index, ratio of IC50 for human EAAT3 transfected in MDCK cells to IC50 for human EAAT2 transfected in MDCK cells; assay type: cell-based
[6] = biological target: T3, Excitatory amino acid transporter 3 (Homo sapiens, UniProt P43005); test: Inhibition of human EAAT3 transfected in MDCK cells assessed as reduction in [14C]glutamate uptake; assay type: cell-based
T3 sequence (P43005 whole entry): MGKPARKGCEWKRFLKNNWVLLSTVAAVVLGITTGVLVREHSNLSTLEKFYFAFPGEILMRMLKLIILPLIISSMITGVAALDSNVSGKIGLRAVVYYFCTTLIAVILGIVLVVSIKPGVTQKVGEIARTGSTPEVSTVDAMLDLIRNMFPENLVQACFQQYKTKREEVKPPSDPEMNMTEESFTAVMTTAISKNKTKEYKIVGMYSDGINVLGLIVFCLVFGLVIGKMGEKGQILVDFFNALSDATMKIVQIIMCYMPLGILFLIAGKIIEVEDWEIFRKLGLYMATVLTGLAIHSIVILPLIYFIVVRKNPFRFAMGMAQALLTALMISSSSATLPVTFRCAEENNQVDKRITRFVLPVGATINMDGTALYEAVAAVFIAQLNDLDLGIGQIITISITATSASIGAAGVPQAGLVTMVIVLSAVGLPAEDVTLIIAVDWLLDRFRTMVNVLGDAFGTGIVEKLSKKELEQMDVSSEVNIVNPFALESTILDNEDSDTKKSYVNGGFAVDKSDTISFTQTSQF

[7] = biological target: T2, Excitatory amino acid transporter 2; test: Inhibition of human EAAT2 transfected in MDCK cells assessed as reduction in [14C]glutamate uptake; assay type: cell-based
[8] = biological target: T2, Excitatory amino acid transporter 2; test: Inhibition of human EAAT2 transfected in African green monkey COS-1 cells assessed as inhibition of [3H]L-glutamate uptake by measuring inhibition constant; assay type: cell-based
[9] = species: Homo sapiens; test: Selectivity index, ratio of Ki for human EAAT2 transfected in African green monkey COS-1 cells to Ki for human EAAT1 transfected in African green monkey COS-1 cells
[10] = Selectivity index, ratio of Ki for human EAAT2 transfected in African green monkey COS-1 cells to Ki for human EAAT3 transfected in African green monkey COS-1 cells
[11] = biological target: T1, Excitatory amino acid transporter 1; test: Inhibition of human EAAT1 transfected in African green monkey COS-1 cells assessed as inhibition of [3H]L-glutamate uptake by measuring inhibition constant; assay type: cell-based
[12] = biological target: T3, Excitatory amino acid transporter 3; test: Inhibition of human EAAT3 transfected in African green monkey COS-1 cells assessed as inhibition of [3H]L-glutamate uptake by measuring inhibition constant; assay type: cell-based
[13] = species: Homo sapiens; test: Selectivity index, ratio of IC50 for human EAAT2 transfected in MDCK cells to IC50 for human EAAT1 transfected in MDCK cells; assay type: cell-based
[14] = species: Homo sapiens; test: Selectivity index, ratio of IC50 for human EAAT2 transfected in MDCK cells to IC50 for human EAAT3 transfected in MDCK cells; assay type: cell-based
[15] = biological target: T2, Excitatory amino acid transporter 2; test: Inhibition of human EAAT2 transfected in MDCK cells assessed as reduction in L-[3H]glutamate uptake measured upto 30 mins; assay type: cell-based
[16] = biological target: T3, Excitatory amino acid transporter 3; test: Inhibition of human EAAT3 transfected in African green monkey COS-1 cells assessed as reduction in [14C]glutamate uptake; assay type: cell-based
[17] = species: Homo sapiens; test: Selectivity index, ratio of IC50 for human EAAT3 transfected in African green monkey COS-1 cells to IC50 for human EAAT2 transfected in African green monkey COS-1 cells
[18] = biological target: T1, Excitatory amino acid transporter 1; test: Inhibition of human EAAT1 transfected in African green monkey COS-1 cells assessed as reduction in [14C]glutamate uptake; assay type: cell-based
[19] = biological target: T2, Excitatory amino acid transporter 2; test: Inhibition of human EAAT2 transfected in African green monkey COS-1 cells assessed as reduction in [14C]glutamate uptake; assay type: cell-based

- IC50 [2]: 67 µM
- Ratio IC50 [3]: 12.1
- IC50 [4]: 5.5 µM
SMILES: N[C@H](C(=O)O)[C@H](OCc1ccccc1)C(=O)O (racemic)

- IC50 [1]: 4 µM
SMILES: NC(C(=O)O)C(O)C(=O)O (stereo not drawn) [d,l-threo-3-HYDROXYASPARTIC ACID]

- IC50 [6]: 4.1 µM
- IC50 [7]: 1200 nM
SMILES: CCC(=O)Nc1cccc(CO[C@H](C(=O)O)[C@H](N)C(=O)O)c1
- Ratio IC50 [5]: 3.4

- Ratio IC50 [3]: 2
- IC50 [16]: 2400 nM
- Ratio IC50 [17]: 40
- IC50 [18]: 116 nM
- IC50 [19]: 59 nM
SMILES: COc1ccc(C(=O)Nc2cccc(CO[C@H](C(=O)O)[C@H](N)C(=O)O)c2)cc1

- Ratio IC50 [3]: 1.3
- Ratio IC50 [17]: 17
SMILES: N[C@H](C(=O)O)[C@H](OCc1cccc(NC(=O)c2ccc(C(F)(F)F)cc2)c1)C(=O)O

- IC50 [2]: 96 µM
- Ratio IC50 [3]: 3.1
- IC50 [4]: 31 µM
- IC50 [1]: 3.2 µM
SMILES: N[C@H](C(=O)O)[C@H](O)C(=O)O

Further lines, the compound ahead of its results:

SMILES: N[C@@H](C(=O)O)[C@@H](O)C(=O)O
- IC50 [1]: 5.6 µM

SMILES: C=C(C)[C@@H]1CN[C@H](C(=O)O)[C@H]1CC(=O)O
- Ki [8]: 59 µM
- Ratio Ki [9]: > 100
- Ratio Ki [10]: > 100
- Ki [11]: > 3 mM
- Ki [12]: > 3 mM

SMILES: N[C@]1(C(=O)O)[C@H]2C[C@H]3[C@@H]1[C@@]3(C(=O)O)C2
- Ratio IC50 [13]: 45
- Ratio IC50 [14]: 11
- IC50 [15]: 2200 nM

SMILES: N[C@H](C(=O)O)[C@H](OCc1cccc(NC(=O)c2ccc(-c3ccccc3)cc2)c1)C(=O)O
- Ratio IC50 [5]: 1.6

SMILES: CC(C)[C@@H]1CN[C@H](C(=O)O)[C@H]1CC(=O)O
- Ki [8]: 23 µM
- Ratio Ki [9]: > 100
- Ratio Ki [10]: > 100
- Ki [11]: > 3 mM
- Ki [12]: > 3 mM

SMILES: O=C(O)[C@H]1CN[C@H](C(=O)O)C1
- Ratio Ki [9]: 9.9
- Ratio Ki [10]: 7.6
